Assay results: US8168667B2 (Galapagos NV, priority 2006, dated 2012)
Read-outs that look alike come from different tables or passages of the source.

How the values were obtained:
[1] = biological target: T1, human androgen receptor (hAR) (Homo sapiens, UniProt P10275); assay: Functional response test: hAR transactivation (luciferase reporter) in HALP2 cells; format: cell-based; details: for EC50: agonism, HALP2 cells (HeLa, hAR + ARE-luciferase), 20 hours at 37° C.
T1 sequence (P10275 1-920): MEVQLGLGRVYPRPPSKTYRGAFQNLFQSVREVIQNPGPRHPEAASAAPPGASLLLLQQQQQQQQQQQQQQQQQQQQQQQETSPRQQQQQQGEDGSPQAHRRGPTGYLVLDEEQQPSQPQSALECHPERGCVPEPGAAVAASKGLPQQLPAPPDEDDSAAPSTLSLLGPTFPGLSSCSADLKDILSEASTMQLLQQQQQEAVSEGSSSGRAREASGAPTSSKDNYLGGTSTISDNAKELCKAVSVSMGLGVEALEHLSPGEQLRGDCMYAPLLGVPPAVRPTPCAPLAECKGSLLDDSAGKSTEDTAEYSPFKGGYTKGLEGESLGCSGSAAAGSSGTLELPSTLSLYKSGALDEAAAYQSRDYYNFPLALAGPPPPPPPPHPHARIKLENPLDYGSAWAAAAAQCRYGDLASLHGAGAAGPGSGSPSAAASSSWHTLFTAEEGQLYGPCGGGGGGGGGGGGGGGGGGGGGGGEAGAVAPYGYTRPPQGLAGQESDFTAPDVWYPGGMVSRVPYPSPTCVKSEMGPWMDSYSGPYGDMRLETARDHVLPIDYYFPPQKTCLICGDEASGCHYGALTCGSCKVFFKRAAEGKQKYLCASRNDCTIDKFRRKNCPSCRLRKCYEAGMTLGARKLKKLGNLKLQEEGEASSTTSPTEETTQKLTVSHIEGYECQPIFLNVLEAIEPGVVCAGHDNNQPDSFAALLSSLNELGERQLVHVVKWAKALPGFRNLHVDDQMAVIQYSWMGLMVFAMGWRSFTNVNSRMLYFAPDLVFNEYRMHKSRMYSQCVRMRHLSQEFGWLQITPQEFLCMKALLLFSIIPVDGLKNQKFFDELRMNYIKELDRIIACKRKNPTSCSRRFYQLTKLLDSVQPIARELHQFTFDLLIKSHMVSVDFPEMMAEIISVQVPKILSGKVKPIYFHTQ
Outline: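 HALP2 cells are HeLa cells stably transfected with CMV-driven hAR and a probasin ARE-luciferase reporter. They were seeded 24 h ahead, then exposed to compounds for 20 hours at 37° C in phenol red-free DMEM with 5% desteroided serum. Luciferase luminescence was measured after lysis; for antagonist mode, compounds were tested against increasing DHT concentrations.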

[2] = system: castrated immature young rats; assay: Adapted model of Hershberger's test (levator ani and ventral prostate weight); format: in vivo, Sprague Dawley rats; details: Rattus norvegicus, po, 96 h
Experimental: The selective modulating activity of the androgen receptor was tested in a model of castrated immature young rats. This model, which is widely recognised for evaluating the anabolic effects of androgen compounds on the muscles and on the genitalia, has been described by Hershberger et al. 1953 Proc. Soc. Expt. Biol. Med. 83:175.
The method is based on the measurement of the well-known effects of androgens on the growth of the muscles and the accessory male sex organs in animals, and also in men. The consequences of castration appear in the form of a rapid involution and atrophy of the prostate and the seminal vesicles and of the anus-lifting muscle (levator ani). This effect may be completely compensated by an exogeneous administration of androgen, in particular of testosterone. The model is thus used to determine the capacity of the tested molecules to maintain the weight of the accessory sex and muscle organs in immature castrated rats, and therefore their androgenic efficacy.
Immature young Sprague Dawley rats (4 to 5 weeks old) weighing approximately 140-160 g (Charles River, Les Oncins, FRANCE) were distributed randomly in various groups and were kept in an environment at 22±2° C. with an alternating day/night cycle of 12 hours and ad libitum access to food and drink.
On day 0, that is, seven days before commencement of the first treatment, the rats were weighed individually then anaesthetised with an intraperitoneal dose of Ketamine/xylazine (85/15 mg/kg, approximately 2 ml/kg). Each animal was then placed on a sterile field and the abdomen and the scrotum were disinfected with Betadine and 70% alcohol. In the case of the orchidectomised control animals (ORX), the testicles were removed via an incision in the middle of the scrotum. A sterile suture was then made to ligature the supra-testicular portion of the tissue prior to surgical section of each testicle. The groups of animals to be treated by the tested compounds were operated on in an identical manner. In the case of the intact control animals (SHAM), the testicles were similarly extracted and reintroduced delicately to their original location. The site of surgical intervention was then sutured using sterile suture thread, and the site was disinfected again by application of Betadine. Each animal was then kept under a sterile pad until it awoke, before being returned to its cage. The animals were kept in an environment at 22±2° C. with an alternating day/night cycle of 12 hours and ad libitum access to food and drink. The animals were treated with the molecules to be tested from post-surgery day 7 and until day 10 preceding sacrifice (day 11).
The rats were split into groups and treated daily from day 7 to day 10 under the conditions defined below: • 1. SHAM control group: Vehicle (0.5% aqueous methyl cellulose) administered per os. • 2. ORX control group: Vehicle (0.5% aqueous methyl cellulose) administered per os. • 3. Treated ORX group: The tested compounds were administered individually per os in suspension in the vehicle described above, in a dose of 30 mg/kg.
After treatment for 4 successive days, the animals were decapitated using a guillotine. The levator ani and the ventral prostate were removed and weighed individually. For comparing inter-experimental data, the weight of each organ was standardised and expressed in milligrammes per 100 g of the weight of the animal (W). For each organ, the average of the standardised weights of the ORX control group was fixed by definition at 0% and the average of the standardised weights of the SHAM control group was fixed by definition at 100%. The efficacy of each product was expressed as a percentage and calculated using the following formula: (Wtreated−WORX)/(WSHAM−WORX)×100 A subsequent ANOVA test was used for statistical analysis to identify the differences between groups.

[3] = read-out: anabolic protection efficacy with regard to levator ani
[4] = read-out: androgenic efficacy with regard to the prostate
[5] = antagonism, concentration which increases the EC50 of the DHT by a factor of 2, Schild regression, HALP2 cells

EC50 [1] [nM]	KSchild (nM) potency [1, 5] [nM]	SMILES	KSchild (nM) potency [1] [nM]	further results
–	–	CN1C(=O)N(c2ccc(Cl)c(Cl)c2)C(=O)C1(C)c1ccc(O)cc1 (centres unmarked) [Example 25, 1-(3,4-dichlorophenyl)-3,4-dimethyl-4-(4-hydroxyphenyl)imidazolidine-2,5-dione]	10.9	melting point: 184 °C
–	–	CN1C(=O)N(c2ccc(C#N)c(C(F)(F)F)c2)C(=O)C1(C)c1ccc(O)c(Cl)c1 (centres unmarked) [Example 173, 4-[4-(3-chloro-4-hydroxyphenyl)-3,4-dimethyl-2,5-dioxoimidazolidin-1-yl]-2-trifluoromethylbenzonitrile]	3	melting point: 161.1 °C
–	–	CN1C(=O)N(c2ccc(C#N)c(C(F)(F)F)c2)C(=O)C1(CF)c1ccc(O)cc1 (centres unmarked) [Example 177, 4-[2,5-dioxo-4-fluoromethyl-4-(4-hydroxyphenyl)-3-methylimidazolidin-1-yl]-2-trifluoromethylbenzonitrile]	0.72	inhibition in vivo at 30 mg/kg [2, 3]: 50 to 140%; inhibition in vivo at 30 mg/kg [2, 4]: 5 to 70%
–	–	COc1cc(N2C(=O)N(C)C(C)(c3ccc(O)cc3)C2=O)ccc1C#N (centres unmarked) [Example 9, 4-[3,4-dimethyl-2,5-dioxo-4-(4-hydroxyphenyl)imidazolidin-1-yl]-2-methoxybenzonitrile]	2.1	inhibition in vivo at 30 mg/kg [2, 3]: 50 to 140%; inhibition in vivo at 30 mg/kg [2, 4]: 5 to 70%
–	–	COCN1C(=O)N(c2ccc(C#N)c(C(F)(F)F)c2)C(=O)C1(C)c1ccc(O)cc1 (centres unmarked) [Example 222, 4-[4-(4-hydroxyphenyl)-3-methoxymethyl-4-methyl-2,5-dioxoimidazolidin-1-yl]-2-trifluoromethylbenzonitrile]	–	inhibition in vivo at 30 mg/kg [2, 3]: 50 to 140%; inhibition in vivo at 30 mg/kg [2, 4]: 5 to 70%
54.8	34.64	CCCN1C(=O)N(c2ccc(Cl)c(Cl)c2)C(=O)C1c1ccc(O)cc1 (centres unmarked) [Example 55]	–	–
–	–	C=CCN1C(=O)N(c2ccc([N+](=O)[O-])c(C(F)(F)F)c2)C(=O)C1c1ccc(O)cc1 (centres unmarked) [Example 13, 1-(4-nitro-3-trifluoromethylphenyl)-4-(4-hydroxyphenyl)-3-(2-propenyl)imidazolidine-2,5-dione]	122.47	–
632	632.46	N#CCN1C(=O)N(c2ccc(F)c(Cl)c2)C(=O)C1c1ccc(O)cc1 (centres unmarked) [Example 95]	–	–
–	–	CCCC1(c2ccc(OC)cc2)C(=O)N(c2ccc(C#N)c(C(F)(F)F)c2)C(=O)N1C (centres unmarked) [Example 166.1, 4-[2,5-dioxo-4-(4-methoxyphenyl)-3-methyl-4-propylimidazolidin-1-yl]-2-trifluoromethylbenzonitrile]	400	–
–	–	CCCN1C(=O)N(c2ccc(Cl)c(C(F)(F)F)c2)C(=O)C1c1ccc(O)cc1 (centres unmarked) [Example 57]	34.64	–
–	–	CN1C(=O)N(c2ccc(C#N)c3c2CCCC3)C(=O)C1(C)c1ccc(O)cc1 (centres unmarked) [Example 34, 8-[3,4-dimethyl-2,5-dioxo-4-(4-hydroxyphenyl)imidazolidin-1-yl]-1,2,3,4-tetrahydro-5-naphthonitrile]	3.3	–
245	244.95	CN(C)CCN1C(=O)N(c2ccc(F)c(C(F)(F)F)c2)C(=O)C1c1ccc(O)cc1 (centres unmarked) [Example 118]	–	–
–	–	CN1C(=O)N(c2ccc(C#N)c(C(F)(F)F)c2)C(=O)C1(CO)c1ccc(O)cc1 (centres unmarked) [Example 176, 4-[2,5-dioxo-4-hydroxymethyl-4-(4-hydroxyphenyl)-3-methyl-imidazolidin-1-yl]-2-trifluoromethylbenzonitrile]	1.34	inhibition in vivo at 30 mg/kg [2, 3]: 50 to 140%; inhibition in vivo at 30 mg/kg [2, 4]: 5 to 70%
–	–	C=CCN1C(=O)N(c2ccc([N+](=O)[O-])cc2)C(=O)C1c1ccc(O)cc1 (centres unmarked) [Example 65]	5.43	–
34.6	34.64	C=CCN1C(=O)N(c2ccc(F)c(C(F)(F)F)c2)C(=O)C1c1ccc(O)cc1 (centres unmarked) [Example 62]	–	–
–	–	CCC1(c2cc(F)c(OC)c(F)c2)C(=O)N(c2ccc(C#N)c(C(F)(F)F)c2)C(=O)N1C (centres unmarked) [Example 167, 4-[4-(3,5-difluoro-4-methoxyphenyl)-2,5-dioxo-4-ethyl-3-methylimidazolidin-1-yl]-2-trifluoromethylbenzonitrile]	54.77	–
–	–	N#CCCN1C(=O)N(c2ccc(C#N)c(C(F)(F)F)c2)C(=O)C1c1ccc(O)cc1 (centres unmarked) [Example 121]	17.32	–
–	–	CN1C(=O)N(c2ccc(C#N)c(C(F)(F)F)c2)C(=O)C1(C)c1ccc(O)cc1F (centres unmarked) [Example 178, 4-[3,4-dimethyl-2,5-dioxo-4-(2-fluoro-4-hydroxyphenyl)imidazolidin-1-yl]-2-trifluoromethylbenzonitrile]	10	–
60	60	CN1C(=O)N(c2ccc(C(F)(F)F)cc2Cl)C(=O)C1(C)c1ccc(O)cc1 (centres unmarked) [Example 29, 1-(2-chloro-4-trifluoromethylphenyl)-3,4-dimethyl-4-(4-hydroxyphenyl)imidazolidine-2,5-dione]	–	–
–	–	COC(=O)CN1C(=O)N(c2ccc(C#N)c(C(F)(F)F)c2)C(=O)C1(C)c1ccc(O)cc1 (centres unmarked) [Example 227, 4-[2,5-dioxo-4-(4-hydroxyphenyl)-3-[(methoxycarbonyl)methyl]-4-methylimidazolidin-1-yl]-2-trifluoromethylbenzonitrile]	3.46	–
–	–	CC1(c2ccc(O)cc2)C(=O)N(c2ccc(C#N)c(C(F)(F)F)c2)C(=O)N1CCCO (centres unmarked) [Example 150]	60	–
80	80	CCCN1C(=O)N(c2ccc(F)c(Cl)c2)C(=O)C1c1ccc(O)cc1 (centres unmarked) [Example 11, 1-(3-chloro-4-fluorophenyl)-4-(4-hydroxyphenyl)-3-propylimidazolidine-2,5-dione]	–	–
15	15	CN1C(=O)N(c2ccc(Cl)c(Cl)c2Cl)C(=O)C1(C)c1ccc(O)cc1 (centres unmarked) [Example 30, 3,4-dimethyl-4-(4-hydroxyphenyl)-1-(2,3,4-trichlorophenyl)imidazolidine-2,5-dione]	–	–
94.9	94.87	N#CCN1C(=O)N(c2ccc(Cl)c(Cl)c2)C(=O)C1c1ccc(O)cc1 (centres unmarked) [Example 91]	–	–
